From the supplement of paper PMC10307832

Experiments:
Experiment in all cases: relative viability (nuclei count vs DMSO), 5 days (fraction); higher = more cells survive
[1] = compound: C1=CC=C2C(=C1)N=C(S2)C(C#N)C3=NC(=NC=C3)NCCC4=CN=CC=C4 + C[C@@H](Oc1cc(-c2cnn(C3CCNCC3)c2)cnc1N)c1c(Cl)ccc(F)c1Cl [Crizotinib] (partner 1 µM)
Procedure, shortened: (§1)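 Relative viability equals treated-well nuclei counts divided by vehicle-well nuclei counts. Counts came from 4× images of lung cancer cell lines grown in 1536-well plates for 5 days after pin-tool dosing on the day after seeding. Dosing used one drug alone or a fixed anchor-drug dose plus five library-drug doses (not always all listed) in √10 steps, and values are medians of duplicate plates.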

NVP-TAE684 + Olaparib = compound: COc1cc(N2CCC(N3CCN(C)CC3)CC2)ccc1Nc1ncc(Cl)c(Nc2ccccc2S(=O)(=O)C(C)C)n1 [NVP-TAE684] + O=C(c1cc(Cc2n[nH]c(=O)c3ccccc23)ccc1F)N1CCN(C(=O)C2CC2)CC1 [Olaparib] (partner 8 µM)
Procedure, shortened: as §1

CUDC-101 + Alpelisib = compound: C#Cc1cccc(Nc2ncnc3cc(OC)c(OCCCCCCC(=O)NO)cc23)c1 [CUDC-101] + Cc1nc(NC(=O)N2CCC[C@H]2C(N)=O)sc1-c1ccnc(C(C)(C)C(F)(F)F)c1 [Alpelisib] (partner 2 µM)
Procedure, shortened: as §1

CUDC-101 + Pictilisib = compound: C#Cc1cccc(Nc2ncnc3cc(OC)c(OCCCCCCC(=O)NO)cc23)c1 [CUDC-101] + CS(=O)(=O)N1CCN(Cc2cc3nc(-c4cccc5[nH]ncc45)nc(N4CCOCC4)c3s2)CC1 [Pictilisib] (partner 1 µM)
Procedure, shortened: as §1

Cell Line | relative viability ([1]; first compound 0.005 µM) | relative viability ([1]; first compound 0.01581 µM) | relative viability ([1]; first compound 0.05 µM) | relative viability ([1]; first compound 0.1581 µM) | relative viability ([1]; first compound 0.5 µM) | relative viability (NVP-TAE684 + Olaparib; first compound 0.2 µM) | relative viability (NVP-TAE684 + Olaparib; first compound 0.6325 µM) | relative viability (NVP-TAE684 + Olaparib; first compound 2 µM) | relative viability (CUDC-101 + Alpelisib; first compound 0.01 µM) | relative viability (CUDC-101 + Alpelisib; first compound 0.03162 µM) | relative viability (CUDC-101 + Alpelisib; first compound 0.1 µM) | relative viability (CUDC-101 + Alpelisib; first compound 0.3162 µM) | relative viability (CUDC-101 + Alpelisib; first compound 1 µM) | relative viability (CUDC-101 + Pictilisib; first compound 0.01 µM) | relative viability (CUDC-101 + Pictilisib; first compound 0.03162 µM) | relative viability (CUDC-101 + Pictilisib; first compound 0.1 µM) | relative viability (CUDC-101 + Pictilisib; first compound 0.3162 µM) | relative viability (CUDC-101 + Pictilisib; first compound 1 µM)
NCI-H1437 | 0.66 | 1.09 | 0.932 | 1.09 | 0.679 | 0.65 | 0.663 | 0.523 | 1.04 | 0.886 | 0.988 | 0.983 | 0.679 | 0.4 | 0.44 | 0.46 | 0.375 | 0.149
NCI-H1651 | 0.746 | 0.883 | 0.855 | 0.864 | 0.849 | 0.181 | 0.186 | 0.173 | 1.03 | 0.772 | 1 | 0.93 | 0.817 | 0.55 | 0.595 | 0.689 | 0.605 | 0.328
NCI-H1666 | 1.07 | 0.975 | 1.01 | 1 | 0.907 | 0.734 | 0.772 | 0.736 | 0.958 | 0.949 | 1.05 | 0.974 | 0.498 | 0.395 | 0.397 | 0.322 | 0.394 | 0.271
NCI-H1703 | 0.666 | 0.684 | 0.536 | 0.542 | 0.458 | 0.368 | 0.413 | 0.14 | 0.303 |  | 0.322 | 0.53 | 0.506 | 0.228 | 0.252 | 0.244 | 0.293 | 0.299
NCI-H1734 | 0.555 | 0.734 | 0.684 | 0.693 | 0.741 | 0.668 | 0.665 | 0.461 | 0.754 | 0.654 | 0.773 | 0.813 | 0.596 | 0.499 | 0.488 | 0.452 | 0.437 | 0.285
NCI-H1755 | 0.809 | 0.964 | 0.844 | 1.02 | 0.831 | 0.926 | 0.965 |  | 0.96 | 0.944 | 0.956 | 0.972 | 0.844 | 0.406 | 0.409 | 0.444 | 0.41 | 0.264
NCI-H1792 |  | 1.08 | 0.997 | 1.33 | 0.616 | 0.52 | 0.37 | 0.248 | 0.702 | 0.57 | 0.695 | 0.734 | 0.645 | 0.361 | 0.226 | 0.28 | 0.316 | 0.155
NCI-H1915 | 0.718 | 0.955 | 0.928 | 0.994 | 0.565 | 0.295 | 0.281 | 0.228 | 1.07 | 0.997 | 1.11 | 1.04 | 0.788 | 1 | 0.907 | 0.882 | 0.924 | 0.531
NCI-H1944 | 1.15 | 1.18 | 1.02 | 1.12 | 1.1 | 0.373 | 0.421 | 0.419 | 0.819 | 0.682 | 0.799 | 0.756 | 0.514 | 0.319 | 0.311 | 0.32 | 0.324 | 0.298
NCI-H1975 | 0.766 | 1.18 | 0.954 | 1.14 | 0.667 | 0.862 | 0.748 | 0.288 | 0.714 | 0.634 | 0.686 | 0.673 | 0.538 | 0.336 | 0.323 | 0.265 | 0.24 | 0.192
NCI-H1993 | 0.684 | 0.844 | 0.762 | 0.94 | 0.832 | 1.11 | 1.09 | 0.749 | 0.742 | 0.751 | 0.766 | 0.671 | 0.639 | 0.845 | 0.824 | 0.918 | 0.763 | 0.869
NCI-H2009 | 1 | 0.991 | 0.97 | 1.08 | 0.976 | 0.657 | 0.665 | 0.634 | 1.13 | 1.1 | 1.14 | 1.07 | 1.04 | 0.813 | 0.824 | 0.963 | 0.917 | 0.699
NCI-H2023 | 0.592 | 0.568 | 0.604 | 0.706 | 0.483 | 0.587 | 0.518 | 0.138 | 0.552 | 0.581 | 0.564 | 0.663 | 0.565 | 0.245 | 0.223 | 0.257 | 0.226 | 0.151
NCI-H2085 | 0.682 | 0.887 | 0.792 | 0.825 | 0.792 | 0.819 | 0.754 | 0.714 | 0.957 | 1.01 | 0.925 | 1.01 | 0.868 | 0.539 | 0.549 | 0.493 | 0.489 | 0.304
NCI-H2087 | 0.908 | 0.807 | 0.76 | 0.954 | 0.727 | 0.646 | 0.598 | 0.503 | 1.02 | 1.02 | 0.979 | 1.05 | 0.783 | 0.985 | 1.03 | 1.11 | 1.11 | 0.603
NCI-H2126 | 0.825 | 0.989 | 1.02 | 1.04 | 0.881 | 0.88 |  | 0.712 | 0.771 | 0.706 | 0.7 | 0.74 | 0.531 | 0.501 | 0.545 | 0.432 | 0.446 | 0.315
NCI-H2170 |  | 1.33 | 1.1 | 1.31 | 1.05 | 0.583 | 0.58 | 0.518 | 0.88 | 0.744 | 0.724 | 0.658 | 0.47 | 0.317 | 0.297 | 0.289 | 0.275 | 0.169
